# According to patent US20110124607A1, “COMPOSITION FOR REGULATION CELLULAR SENESCENCE COMPRISING LYSOPHOSPHATIDIC ACID AND INHIBITOR OF ADENYLYL CYCLASE AS ACTIVE INGREDIENTS” (priority 2008, published 2011):
# Assays:
# [1] = test system: young cells (human fibroblasts); assay: Cell proliferation by counting live cells (trypan blue), young cells; assay type: cell-based; settings: serum-starved 2 days, counted day 1, 2, 4, 30 μM LPA, 300 μM ACI, 10 mM AMPKI, 10 mM AICAR
# Protocol: (§1) Human fibroblasts were prepared by primary culture of foreskin of a newborn baby (Boyce and Ham, 1983). The primary culture was performed in DMEM supplemented with 10% FBS and 1% antibiotics. The protein contents of young cells from the early stage of sub-culture, with a population doubling (PD) of less than 25, were compared to those of at least PD 65-70 senescent cells. […] In senescent cells, the activity of beta-galactosidase was increased and cell proliferation was reduced (Yeo et al., 2000).
# (§2) Prior to LPA and ACI treatment, cells were grown for 1-2 days to 60-70% sub-confluence in DMEM-containing culture medium, and then serum-starved to quiescence (that is Go/G1 arrest) by incubation in a serum-free medium containing 0.1% bovine serum albumin (BSA) for 2 days. Young and senescent cells were treated with LPA, ACI, LPA+ACI, AMPKI and AICAR, respectively. Live cells were measured after staining the cells with trypan blue on day 1, day 2 and day 4 to confirm cell proliferation.
# (§3) Cell proliferation and cAMP level were increased by LPA in senescent cells (Yeo et al., 2002). The AC inhibitor (ACI) was added to reduce cAMP which had been increased by LPA. And then, cell proliferation was investigated. Cells were cultured in serum-free medium for 2 days to arrest them in G0/G1 phase. Then, the cells were treated with LPA, ACI or LPA+ACI. Total cell number was measured on day 1, day 2 and day 4, or the cells entered into S phase were counted to evaluate cell proliferation. When young cells were treated with 300 μM of ACI, cell proliferation was reduced, compared with control (FIG. 1A). In the meantime, when senescent cells were treated with 300 μM of ACI, cell proliferation was increased, compared with control (FIG. 1B).
# [2] = test system: senescent cells (human fibroblasts); assay: Cell proliferation by counting live cells (trypan blue), senescent cells; assay type: cell-based; settings: serum-starved 2 days, counted day 1, 2, 4, 30 μM LPA, 300 μM ACI, 10 mM AMPKI, 10 mM AICAR
# Protocol: as §1, §2, §3
# p-Thr172-AMPKα = assay: Immuno-blotting of p-Thr172-AMPKα; assay type: cell-based, human; settings: 30 μM LPA, 300 μM ACI, 10 mM AMPKI, 10 mM AICAR, up to day 4
# Protocol: (§4) (A) and (B): Young and senescent cells were serum-starved for 2 days, followed by treatment with 10 mM of AMPK inhibitor […]) or 10 mM of AMPK activator AICAR(B) for 4 days. Proteins were extracted from the treated cells and the levels of AMPKα and p-Thr172-AMPKα, total p53, p-Ser15-p53 and […] measured by immuno-blotting. (C) and (D): Young cells (C) and senescent cells (D) were treated with 10 mM AMPKI or 10 mM AICAR and cultured for 4 days, followed by measurement of cell proliferation by cell counting. At this time, the experiment was repeated three times (p<0.001). (A) and (B) are photographs illustrating the results of immuno-blotting. Precisely, sub-cultured young cells (PD 18: A) and senescent cells (PD 64: B) were treated with 30 μM of LPA […] and ACI singly or together, followed by further culture for 1, 2, and 4 days. Proteins were extracted from the cultured cells and the levels of AMPKα, […] β-actin were quantified by immuno-blotting. (A) and (B) are photographs illustrating the results of immuno-blotting. Precisely, senescent cells (PD 64) were pre-treated with 10 mM of PKA inhibitor Rp-cAMP for one hour, followed by treatment with LPA(A) or ACI(B). After culturing the cells for 1, 2, and 4 days, proteins were extracted from the cultured cells and the levels of AMPKα, […] β-actin were quantified by immuno-blotting using 45 μg of the protein. To analyse protein expression, human fibroblasts were lysed in cold lysis buffer (25 mM Hepes, pH 8.0, 150 mM NaCl, 1 mM EDTA, 1 mM Na3VO4, 1 mM NaF, 1% Triton X-100 and protease inhibitors), followed by centrifugation at 4° C. at 9,000 rpm for 10 minutes to obtain supernatant. Protein in the extract was quantified […]. SDS-PAGE electrophoresis was performed with equal amount of the protein (45 μg) to separate. The separated protein was transferred onto NC membrane from the electrophoresis gel. Non-specific protein binding was blocked by blocking the blot (transferred NC membrane) using TTBS […] containing 5% skim milk for one hour. Then, antigen-antibody reaction was induced with diluted primary antibody at 4° C. for overnight. The blot was washed with TTBS, followed by reaction with horseradish peroxidase conjugated anti-IgGs diluted in TTBS containing 5% skim milk (1:5000) at room temperature for one hour. The blot was washed again with TTBS to eliminate non-specific binding of antigen-antibody. Photographs were developed/printed on X-ray film (Kodak) using ECL kit (Pierce) containing peroxidase substrate to identify each protein.
# p-Ser15-p53 = assay: Immuno-blotting of p-Ser15-p53; assay type: cell-based, human; settings: 10 mM AMPKI, 10 mM AICAR
# Protocol: as §4
# p21waf1/cip1 = assay: Immuno-blotting of p21waf1/cip1; assay type: cell-based, human; settings: 10 mM AMPKI, 10 mM AICAR
# Protocol: as §4
# [3] = senescent cells, 30 μM LPA, 300 μM ACI
smiles,measurement,setting,value
NC(=O)c1ncn([C@@H]2O[C@H](CO)[C@@H](O)[C@H]2O)c1N [AICAR],cell proliferation (cell number) compared with control,[1],suppressed
same,cell proliferation (cell number) compared with control,[2],suppressed
same,Thr172-AMPKα phosphorylation,p-Thr172-AMPKα; senescent cells,increased
same,Thr172-AMPKα phosphorylation,p-Thr172-AMPKα; young cells,increased
same,p-Ser15-p53 expression,p-Ser15-p53; [3],increased
same,p-Ser15-p53 expression,"p-Ser15-p53; young cells, 4 days",increased
same,p21 expression (immuno-blotting),p21waf1/cip1; [3],increased
same,p21 expression (immuno-blotting),"p21waf1/cip1; young cells, 4 days",increased
